Measurements taken from patent US12559529B2, “NPY2 receptor agonists” (Boehringer Ingelheim International GmbH, priority 2019, dated 2026).

What was measured:
human NPY4 receptor = molecular target: T1, human NPY4 receptor (Homo sapiens, UniProt P50391); assay: HTRF cAMP Gi assay, hY4R; format: cell-based; details: Table 4; CHO-K1 cells
T1 construct: expressed in transfected cells; host or cells: CHO-K1
From the text: (§1) The Homogenous Time Resolved fluorescence (HTRF) technology optimized for Gi coupled receptors has thoroughly been described in Cisbio cAMP Gi kit manual. Briefly, the production of intracellular cAMP will generate a competition between unlabeled cAMP and exogenously added d2-cAMP for anti-cAMP antibodies conjugated to cryptate. CHO-K1 cells stably expressing the human NPY1, NPY2, NPY4 and NPY5 receptors were used with the cells brought to life from a frozen stock immediately before assay performance. 2000 cells per well were applied for all four NPY receptor subtype assays. A 384-well format was used applying a total volume of 20 μl using 5 μl cells, 2.5 μl peptide agonist, 2.5 μl forskolin and 5 μl of each of the fluorophores. […] Concentration-response evaluation of compounds was performed with 11 concentrations of agonist peptides (covering 3 decades). EC50 values were calculated by nonlinear regression using sigmoid concentration-response with variable slope.

human NPY5 receptor = molecular target: T2, human NPY5 receptor (Homo sapiens, UniProt Q15761); assay: HTRF cAMP Gi assay, hY5R
T2 sequence (Q15761 1-445): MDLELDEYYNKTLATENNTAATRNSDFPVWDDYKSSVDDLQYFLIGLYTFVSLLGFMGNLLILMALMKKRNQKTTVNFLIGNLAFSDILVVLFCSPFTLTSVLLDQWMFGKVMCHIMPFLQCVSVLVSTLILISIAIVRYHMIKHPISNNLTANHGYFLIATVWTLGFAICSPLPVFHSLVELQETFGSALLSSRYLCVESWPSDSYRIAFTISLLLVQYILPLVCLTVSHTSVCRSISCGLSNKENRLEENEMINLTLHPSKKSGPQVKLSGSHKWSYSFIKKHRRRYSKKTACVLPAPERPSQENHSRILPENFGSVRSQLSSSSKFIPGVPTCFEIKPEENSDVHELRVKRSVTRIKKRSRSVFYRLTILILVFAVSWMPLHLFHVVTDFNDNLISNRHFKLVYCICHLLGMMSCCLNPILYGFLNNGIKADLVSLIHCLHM
From the text: as §1

normal NMRI mice = assay: Effect on acute food intake in normal NMRI mice; format: in vivo; details: male NMRI mice, 10 nmol/kg subcutaneously once
Outline: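 A single 10 nmol/kg s.c. peptide dose was given 1 h before lights-off to male NMRI mice fasted from 6 h before the night phase (n=7-8). Intake was recorded continuously by microchip-identified HM-2 feeding channels. Values are normalized to vehicle controls (50 mM phosphate buffer pH7 with 5% Mannitol).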

human NPY1 receptor = molecular target: T3, human NPY1 receptor (Homo sapiens, UniProt P25929); assay: HTRF cAMP Gi assay, hY1R; format: cell-based; details: Table 4; CHO-K1 cells
T3 construct: expressed in transfected cells; host or cells: CHO-K1
T3 sequence (P25929 1-384): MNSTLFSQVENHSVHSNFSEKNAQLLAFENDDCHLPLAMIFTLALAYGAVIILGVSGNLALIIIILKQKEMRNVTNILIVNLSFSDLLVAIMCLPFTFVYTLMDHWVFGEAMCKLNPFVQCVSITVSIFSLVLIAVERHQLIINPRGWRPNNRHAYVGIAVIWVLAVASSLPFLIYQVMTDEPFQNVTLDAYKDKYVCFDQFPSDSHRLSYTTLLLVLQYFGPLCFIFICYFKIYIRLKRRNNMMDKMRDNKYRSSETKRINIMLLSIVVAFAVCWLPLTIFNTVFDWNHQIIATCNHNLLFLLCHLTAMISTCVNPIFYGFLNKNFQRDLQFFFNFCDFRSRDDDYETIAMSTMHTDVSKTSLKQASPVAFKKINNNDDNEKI
Method: (§2) Briefly, the production of intracellular cAMP will generate a competition between unlabeled cAMP and exogenously added d2-cAMP for anti-cAMP antibodies conjugated to cryptate. CHO-K1 cells stably expressing the human NPY1, NPY2, NPY4 and NPY5 receptors were used with the cells brought to life from a frozen stock immediately before assay performance. 2000 cells per well were applied for all four NPY receptor subtype assays. A 384-well format was used applying a total volume of 20 μl using 5 μl cells, 2.5 μl peptide agonist, 2.5 μl forskolin and 5 μl of each of the fluorophores. […] Concentration-response evaluation of compounds was performed with 11 concentrations of agonist peptides (covering 3 decades). EC50 values were calculated by nonlinear regression using sigmoid concentration-response with variable slope.

[1] = molecular target: T4, Human Neuropeptide Y2 Receptor (Homo sapiens, UniProt P49146); assay: Radioligand binding competition assay (RLB); details: Table 3; human 125I-PYY (1-36) 0.02 nM, Y2 receptor membranes; read-out: Ki
T4 construct: purchased CHEMICON HTS066M
T4 sequence (P49146 1-381): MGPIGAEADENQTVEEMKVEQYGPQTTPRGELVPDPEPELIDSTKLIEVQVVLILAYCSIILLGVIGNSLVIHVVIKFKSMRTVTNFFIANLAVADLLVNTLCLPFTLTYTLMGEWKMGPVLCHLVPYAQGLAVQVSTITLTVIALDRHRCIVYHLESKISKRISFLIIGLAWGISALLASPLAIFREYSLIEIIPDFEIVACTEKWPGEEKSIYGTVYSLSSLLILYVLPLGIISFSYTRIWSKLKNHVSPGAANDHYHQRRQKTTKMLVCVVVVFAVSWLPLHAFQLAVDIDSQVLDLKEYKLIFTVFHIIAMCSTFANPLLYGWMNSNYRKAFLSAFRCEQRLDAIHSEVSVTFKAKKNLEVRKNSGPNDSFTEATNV
Outline: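 Competition binding at commercial human NPY Y2 membrane preparations, 0.5 μg protein per well, 2 h incubation at room temperature. Bound and free ligand were separated on GF/C filters and counted; IC50 was fitted by nonlinear regression.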

human NPY2 receptor = molecular target: T5, human NPY2 receptor (Homo sapiens, UniProt P49146); assay: HTRF cAMP Gi assay, hY2R
T5 sequence (P49146 1-381): T4 sequence (P49146 1-381)
Method: as §2

T1 sequence (P50391 whole entry): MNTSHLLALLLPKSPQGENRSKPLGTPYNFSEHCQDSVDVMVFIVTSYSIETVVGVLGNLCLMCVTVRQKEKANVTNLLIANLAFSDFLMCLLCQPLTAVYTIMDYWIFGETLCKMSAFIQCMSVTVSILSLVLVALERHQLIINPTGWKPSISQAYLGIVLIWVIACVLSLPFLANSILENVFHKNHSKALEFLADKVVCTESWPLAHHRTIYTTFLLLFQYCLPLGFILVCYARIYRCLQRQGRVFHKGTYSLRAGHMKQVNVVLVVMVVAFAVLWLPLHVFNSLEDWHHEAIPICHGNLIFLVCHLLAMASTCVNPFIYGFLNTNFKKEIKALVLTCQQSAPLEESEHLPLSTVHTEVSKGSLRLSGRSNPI

| EC50 (human NPY4 receptor) [nM] | EC50 (human NPY5 receptor) [nM] | EC50 (human NPY1 receptor) [nM] | Ki [1] [nM] | EC50 (human NPY2 receptor) [nM] | SMILES | Acute Food Intake 24 h [% vehicle] (normal NMRI mice) |
| --- | --- | --- | --- | --- | --- | --- |
| > 5000 | > 5000 | > 5000 | 0.95 | 0.131 | CC(C)CC(=O)N[C@@H](C)C(=O)N1CCC[C@H]1C(=O)N[C@@H](CCC(=O)O)C(=O)N[C@@H](CCCCNC(=O)COCCOCCNC(=O)COCCOCCNC(=O)CC[C@H](NC(=O)CCCCCCCCCCCCCCCCC(=O)O)C(=O)O)C(=O)N1CCC[C@H]1C(=O)N[C@@H](CCC(=O)O)C(=O)N[C@@H](CCC(=O)O)C(=O)N[C@@H](CC(=O)O)C(=O)N[C@@H](C)C(=O)N[C@@H](CO)C(=O)N1CCC[C@H]1C(=O)N[C@@H](CCC(=O)O)C(=O)N[C@@H](CCC(=O)O)C(=O)N[C@@H](CC(C)C)C(=O)N[C@@H](CCC(N)=O)C(=O)N[C@@H](CCCNC(=N)N)C(=O)N[C@@H](Cc1ccc(O)cc1)C(=O)N[C@@H](Cc1ccc(O)cc1)C(=O)N[C@H](C(=O)N[C@@H](CO)C(=O)N[C@@H](CC(C)C)C(=O)N[C@@H](CCCNC(=N)N)C(=O)N[C@@H](Cc1c[nH]cn1)C(=O)N[C@@H](Cc1ccc(O)cc1)C(=O)N[C@@H](Cc1ccc(O)cc1)C(=O)N[C@@H](CC(N)=O)C(=O)N[C@@H](Cc1c[nH]c2ccccc12)C(=O)N[C@@H](CC(C)C)C(=O)N[C@H](C(=O)N[C@@H](CCCNC(=N)N)C(=O)N[C@@H](CCC(N)=O)C(=O)N[C@@H](CCCNC(=N)N)C(=O)N[C@@H](Cc1ccc(O)cc1)C(N)=O)[C@@H](C)O)C(C)C [Compound 54, N{alpha-4}-(3-methylbutanoyl)-N{epsilon-7}-[2-(2-{2-[2-(2-{2-[(4S)-4-carboxy-4-(17-carboxyheptadecanamido)butanamido]ethoxy}ethoxy)acetamido]ethoxy}ethoxy)acetamido]-[4A,7K,9E,18Q,22V,28Y,30W,31L]hPYY (4-36)] | 42 |
| > 5000 | > 5000 | > 5000 | 6.94 | 0.284 | CC(C)CC(=O)N[C@@H](C)C(=O)N1CCC[C@H]1C(=O)N[C@@H](CCC(=O)O)C(=O)N[C@@H](CCCCNC(=O)COCCOCCNC(=O)COCCOCCNC(=O)CC[C@H](NC(=O)CCCCCCCCCCCCCCCCC(=O)O)C(=O)O)C(=O)N1CCC[C@H]1C(=O)N[C@@H](CCC(=O)O)C(=O)N[C@@H](CCC(=O)O)C(=O)N[C@@H](CC(=O)O)C(=O)N[C@@H](C)C(=O)N[C@@H](CCC(=O)O)C(=O)N1CCC[C@H]1C(=O)N[C@@H](CCC(=O)O)C(=O)N[C@@H](CCC(=O)O)C(=O)N[C@@H](CC(C)C)C(=O)N[C@@H](CCC(N)=O)C(=O)N[C@@H](CCC(=O)O)C(=O)N[C@@H](Cc1ccc(O)cc1)C(=O)N[C@@H](Cc1ccc(O)cc1)C(=O)N[C@H](C(=O)N[C@@H](CO)C(=O)N[C@@H](CC(C)C)C(=O)N[C@@H](CCCNC(=N)N)C(=O)N[C@@H](Cc1c[nH]cn1)C(=O)N[C@@H](Cc1ccc(O)cc1)C(=O)N[C@@H](Cc1ccc(O)cc1)C(=O)N[C@@H](CC(N)=O)C(=O)N[C@@H](Cc1c[nH]c2ccccc12)C(=O)N[C@@H](CC(C)C)C(=O)N[C@H](C(=O)N[C@@H](CCCNC(=N)N)C(=O)N[C@@H](CCC(N)=O)C(=O)N[C@@H](CCCNC(=N)N)C(=O)N[C@@H](Cc1ccc(O)cc1)C(N)=O)[C@@H](C)O)C(C)C [Compound 105, N{alpha-4}-(3-methylbutanoyl)-N{epsilon-7}-[2-(2-{2-[2-(2-{2-[(4S)-4-carboxy-4-(17-carboxyheptadecanamido)butanamido]ethoxy}ethoxy)acetamido]ethoxy}ethoxy)acetamido]-[4A,7K,9E,13E,18Q,19E,22V,28Y,30W,31L]hPYY (4-36)] | 72 |
| > 5000 | > 5000 | > 5000 | 4.33 | 0.235 | CC(C)CC(=O)N[C@@H](C)C(=O)N1CCC[C@H]1C(=O)N[C@@H](CCC(=O)O)C(=O)N[C@@H](CCCCNC(=O)COCCOCCNC(=O)COCCOCCNC(=O)CC[C@H](NC(=O)CCCCCCCCCCCCCCCCC(=O)O)C(=O)O)C(=O)N1CCC[C@H]1C(=O)N[C@@H](CCC(=O)O)C(=O)N[C@@H](CCC(=O)O)C(=O)N[C@@H](CC(=O)O)C(=O)N[C@@H](C)C(=O)N[C@@H](CO)C(=O)N[C@@H](CCC(=O)O)C(=O)N[C@@H](CCC(=O)O)C(=O)N[C@@H](CCC(=O)O)C(=O)N[C@@H](CC(C)C)C(=O)N[C@@H](CCC(N)=O)C(=O)N[C@@H](CCC(=O)O)C(=O)N[C@@H](Cc1ccc(O)cc1)C(=O)N[C@@H](Cc1ccc(O)cc1)C(=O)N[C@H](C(=O)N[C@@H](CO)C(=O)N[C@@H](CC(C)C)C(=O)N[C@@H](CCCNC(=N)N)C(=O)N[C@@H](Cc1c[nH]cn1)C(=O)N[C@@H](Cc1ccc(O)cc1)C(=O)N[C@@H](Cc1ccc(O)cc1)C(=O)N[C@@H](CC(N)=O)C(=O)N[C@@H](Cc1c[nH]c2ccccc12)C(=O)N[C@@H](CC(C)C)C(=O)N[C@H](C(=O)N[C@@H](CCCNC(=N)N)C(=O)N[C@@H](CCC(N)=O)C(=O)N[C@@H](CCCNC(=N)N)C(=O)N[C@@H](Cc1ccc(O)cc1)C(N)=O)[C@@H](C)O)C(C)C [Compound 164, N{alpha-4}-(3-methylbutanoyl)-N{epsilon-7}-[2-(2-{2-[2-(2-{2-[(4S)-4-carboxy-4-(17-carboxyheptadecanamido)butanamido]ethoxy}ethoxy)acetamido]ethoxy}ethoxy)acetamido]-[4A,7K,9E,14E,18Q,19E,22V,28Y,30W,31L]hPYY (4-36)] | 64 |
| > 5000 | > 5000 | > 5000 | 3.09 | 0.106 | CC(C)CC(=O)N[C@@H](C)C(=O)N1CCC[C@H]1C(=O)N[C@@H](CCC(=O)O)C(=O)N[C@@H](CCCCNC(=O)COCCOCCNC(=O)COCCOCCNC(=O)CC[C@H](NC(=O)CCCCCCCCCCCCCCCCC(=O)O)C(=O)O)C(=O)N1CCC[C@H]1C(=O)N[C@@H](CCC(=O)O)C(=O)N[C@@H](CCC(=O)O)C(=O)N[C@@H](CC(=O)O)C(=O)N[C@@H](C)C(=O)N[C@@H](CCC(=O)O)C(=O)N1CCC[C@H]1C(=O)N[C@@H](CCC(=O)O)C(=O)N[C@@H](CCC(=O)O)C(=O)N[C@@H](CC(C)C)C(=O)N[C@@H](CCC(N)=O)C(=O)N[C@@H](CCCNC(=N)N)C(=O)N[C@@H](Cc1ccc(O)cc1)C(=O)N[C@@H](Cc1ccc(O)cc1)C(=O)N[C@H](C(=O)N[C@@H](CO)C(=O)N[C@@H](CC(C)C)C(=O)N[C@@H](CCCNC(=N)N)C(=O)N[C@@H](Cc1c[nH]cn1)C(=O)N[C@@H](Cc1ccc(O)cc1)C(=O)N[C@@H](Cc1ccc(O)cc1)C(=O)N[C@@H](CC(N)=O)C(=O)N[C@@H](Cc1c[nH]c2ccccc12)C(=O)N[C@@H](CC(C)C)C(=O)N[C@H](C(=O)N[C@@H](CCCNC(=N)N)C(=O)N[C@@H](CCC(N)=O)C(=O)N[C@@H](CCCNC(=N)N)C(=O)N[C@@H](Cc1ccc(O)cc1)C(N)=O)[C@@H](C)O)C(C)C [Compound 188, N{alpha-4}-(3-methylbutanoyl)-N{epsilon-7}-[2-(2-{2-[2-(2-{2-[(4S)-4-carboxy-4-(17-carboxyheptadecanamido)butanamido]ethoxy}ethoxy)acetamido]ethoxy}ethoxy)acetamido]-[4A,7K,9E,13E,18Q,22V,28Y,30W,31L]hPYY (4-36)] | 55 |
